# Test results from ChEMBL document CHEMBL1201862, “PubChem BioAssay data set” (2004).
#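 Interpolation was linear, between the two tested concentrations surrounding the appropriate level; five concentrations were tested over 48 hours in 96-well plates. GI50 marks 50% less growth.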 Active and inactive are the calls of the source. No stated cut-off is given here; in the data, active = GI50 up to about 1.1 µM and inactive = higher.
# Key:
# Experiment in all cases: NCI-60 cell line screen, 48 h
# HCT-15 = tested on: HCT-15
# HL-60 = tested on: HL-60
# KM12 = tested on: KM12
# M14 = tested on: M14
# MOLT-4 = tested on: MOLT-4
# NCI-H23 = tested on: NCI-H23
# NCI-H522 = tested on: NCI-H522
# OVCAR-3 = tested on: OVCAR-3
# RXF 393 = tested on: RXF 393
# SF-268 = tested on: SF-268
# SF-539 = tested on: SF-539
# SK-MEL-5 = tested on: SK-MEL-5
# SW-620 = tested on: SW-620
# U-251 = tested on: U-251
# UACC-257 = tested on: UACC-257
# OVCAR-4 = tested on: OVCAR-4
# OVCAR-5 = tested on: OVCAR-5
# SR = tested on: SR
SMILES,GI50 (HCT-15) [µM],GI50 (HL-60),GI50 (KM12),GI50 (M14),GI50 (MOLT-4),GI50 (NCI-H23),GI50 (NCI-H522),GI50 (OVCAR-3),GI50 (RXF 393),GI50 (SF-268),GI50 (SF-539),GI50 (SK-MEL-5),GI50 (SW-620),GI50 (U-251),GI50 (UACC-257),GI50 (OVCAR-4),GI50 (OVCAR-5),GI50 (SR)
Cn1c(=O)c(NC(=O)C(Cl)(Cl)Cl)nc2ccccc21,> 100,> 100 µM (inactive),> 100 µM (inactive),> 100 µM (inactive),> 100 µM (inactive),> 100 µM (inactive),> 100 µM (inactive),> 100 µM (inactive),81.8 µM (inactive),> 100 µM (inactive),> 100 µM (inactive),> 100 µM (inactive),> 100 µM (inactive),> 100 µM (inactive),> 100 µM (inactive),,,
O=C(Nc1c(-c2nc3ccccc3[nH]2)sc(=S)n1-c1ccccc1)c1ccccc1,> 100,> 100 µM (inactive),> 100 µM (inactive),> 100 µM (inactive),> 100 µM (inactive),> 100 µM (inactive),> 100 µM (inactive),96.8 µM (inactive),> 100 µM (inactive),> 100 µM (inactive),48.8 µM (inactive),> 100 µM (inactive),> 100 µM (inactive),> 100 µM (inactive),> 100 µM (inactive),> 10 µM (inactive),> 100 µM (inactive),
CCOC(=O)CCc1c(C)c2c(OC(C)=O)cc(OC(C)=O)cc2oc1=O,,40.2 µM (inactive),37.4 µM (inactive),43 µM (inactive),,44.8 µM (inactive),50.4 µM (inactive),27.4 µM (inactive),21.4 µM (inactive),23.3 µM (inactive),70 µM (inactive),,45.7 µM (inactive),55.6 µM (inactive),38.9 µM (inactive),42 µM (inactive),> 100 µM (inactive),
CC1(CO)C(=O)OC12CCCCC2 (stereo not drawn),,> 100 µM (inactive),> 100 µM (inactive),> 100 µM (inactive),> 100 µM (inactive),> 100 µM (inactive),> 100 µM (inactive),> 100 µM (inactive),,> 100 µM (inactive),> 100 µM (inactive),,> 100 µM (inactive),,> 100 µM (inactive),> 100 µM (inactive),,84.9 µM (inactive)
CN(C)CCNC(=O)c1cccc2ccc(-c3cccnc3)nc12,4.06,3.71 µM (inactive),6.5 µM (inactive),8.45 µM (inactive),2.74 µM (inactive),4.39 µM (inactive),,6.27 µM (inactive),6.32 µM (inactive),5.65 µM (inactive),11.4 µM (inactive),3.72 µM (inactive),3.76 µM (inactive),4.36 µM (inactive),4.15 µM (inactive),8.24 µM (inactive),3.87 µM (inactive),
CC1=C(C(=O)Nc2cc(F)c(F)cc2F)C(c2ccc(N(C)C)cc2)C(C(=O)Nc2cc(F)c(F)cc2F)=C(C)N1,,13.9 µM (inactive),19.9 µM (inactive),31.3 µM (inactive),15.4 µM (inactive),20.9 µM (inactive),19.8 µM (inactive),0.432 µM (active),17.1 µM (inactive),27 µM (inactive),18.2 µM (inactive),17.8 µM (inactive),28.8 µM (inactive),28.9 µM (inactive),25.5 µM (inactive),17.7 µM (inactive),32.5 µM (inactive),
C/N=C1\S/C(=N\c2ccc(N(C)C)cc2)N1C,30.5,34.4 µM (inactive),57.1 µM (inactive),33.1 µM (inactive),43 µM (inactive),32.1 µM (inactive),25.8 µM (inactive),39.4 µM (inactive),,24.9 µM (inactive),32.1 µM (inactive),25.2 µM (inactive),38.1 µM (inactive),33.9 µM (inactive),47.8 µM (inactive),44.1 µM (inactive),75.5 µM (inactive),46.1 µM (inactive)
